The values below come from patent US8816095B2, “Na channels, disease, and related assays and compositions” (Georgetown University, priority 2008, dated 2014).

Series [1] deals with human prostate xenograft PC3. The experiment in a line: PC3 xenograft study. The class given is in vivo. Particulars: mice bearing PC3 xenografts; 10 mg/kg ip every other day. The procedure: Intraperitoneally (ip) 10 mg/kg of racemic (±)-1 and each enantiomer was administered in mice bearing PC3 xenografts (FIG. 16). This dose was administered qd every other day for 24 days and effects on reducing the tumor volume were measured.
PC-3 cell line (ATCC, Manassas, Va.) was cultured in RPMI-1640 with L-glutamine (Mediatech Inc., Herdon, Va.) containing 5% fetal bovine serum (FBS), 2.5 mM L-glutamine at 37° C. with 5% CO2.
Male athymic balbc/nude mice (18-22 g) were injected with 3×106 (0.3 mL) of the human prostate cancer cells (PC3). The human prostate cancer cells were injected in the subcutaneous tissue of the right axillary region of the mice. One week after the injection, the mice were randomly sorted into four groups with 6 mice per group. […] The stock of each compound was added to polyethylene glycol 400 (PEG) (Hampton) and PBS in a 1:1 ratio. The test concentrations were obtained by diluting with PEG/PBS. The tumor-bearing mice received an intraperitoneal injection (IP) with either 10 mg/kg of (±)-1, R-(−)-1 or S-(+)-1 or vehicle control respectively once every other day for 4 weeks. At the same time, the tumor size of each mouse was measured by caliper and calculated by the formula: Length×width×height/2.

For series [2] the following is noted: mouse, in vivo, ip.
The next series has as its target T1, hNav1.7 (Homo sapiens, UniProt Q15858).
T1 construct: expressed in transfected cells; host or cells: HEK293
The experiment in a line: Fluorescent (FRET) based sodium channel assay, hNav1.7. The class given is cell-based. The following applies: HEK293 stably transfected with hNav1.7, 20 μM veratridine, read-out: hNav 1.7 IC50. The procedure: Two isoforms of the channel were examined: hNav1.5, a cardiac sodium channel associated with arrhythmias, and hNav1.7, an isoform found in the peripheral nervous system.
HEK293 cells stably transfected with either hNav1.5 or hNav1.7 were plated at approximately 11,000-20,000 cells/well in flat bottom, poly-D-lysine coated black-wall, clear-bottom, 384-well plates (Becton Dickinson, Bedford, Mass.), and incubated overnight at 37° C. in a 10% CO2 atmosphere in growth medium. Cells were washed with 0.03 mL of Dulbecco's phosphate buffered saline (D-PBS) containing calcium and magnesium. Cells were then incubated with 0.025 mL of a solution containing 10 μM CC2-DMPE and 0.02% pluronic acid in D-PBS with calcium and magnesium; supplemented with 10 mM glucose, and 10 mM Hepes-NaOH, pH 7.4. […] Afterwards, cells were incubated in the dark at 25° C. for 45 min with 0.025 mL of a solution containing 5 μM DiSBAC2(3) in VIPR-S, in the absence or presence of test compound. At the end of the incubation period, the plate was placed in a FLIPR TETRA instrument (MDS Analytical Technologies, Sunnyvale Calif.), illuminated at 390-420 nm, and fluorescence emissions were recorded at approximately 1 Hz at 460 and 580 nm. Following a 7 second baseline reading, 0.025 mL of VIPR-S containing 10 μM veratridine for Nav1.5 or 20 μM veratridine for Nav1.7 was added to each well, and the emissions of both dyes were recorded for an additional 33 seconds. The change in fluorescence resonance energy transfer (FRET) ratio (F/F0) was calculated as: F/F0=((A460/A580/(I460/I580) where A and I represent the readings after or before addition of veratridine, respectively, at the indicated wavelengths. For I, the readings from 2-5 seconds were averaged, and for A, readings from 3 seconds after the signal had reached a plateau level (usually within 30-40 s) were also averaged. Triplicate measurements were performed for each experimental condition and the data were averaged.

A further series deals with T2, hERG potassium channels (Homo sapiens, UniProt Q12809).
T2 construct: expressed in transfected cells; host or cells: HEK-293 (membranes)
T2 sequence (Q12809 whole entry): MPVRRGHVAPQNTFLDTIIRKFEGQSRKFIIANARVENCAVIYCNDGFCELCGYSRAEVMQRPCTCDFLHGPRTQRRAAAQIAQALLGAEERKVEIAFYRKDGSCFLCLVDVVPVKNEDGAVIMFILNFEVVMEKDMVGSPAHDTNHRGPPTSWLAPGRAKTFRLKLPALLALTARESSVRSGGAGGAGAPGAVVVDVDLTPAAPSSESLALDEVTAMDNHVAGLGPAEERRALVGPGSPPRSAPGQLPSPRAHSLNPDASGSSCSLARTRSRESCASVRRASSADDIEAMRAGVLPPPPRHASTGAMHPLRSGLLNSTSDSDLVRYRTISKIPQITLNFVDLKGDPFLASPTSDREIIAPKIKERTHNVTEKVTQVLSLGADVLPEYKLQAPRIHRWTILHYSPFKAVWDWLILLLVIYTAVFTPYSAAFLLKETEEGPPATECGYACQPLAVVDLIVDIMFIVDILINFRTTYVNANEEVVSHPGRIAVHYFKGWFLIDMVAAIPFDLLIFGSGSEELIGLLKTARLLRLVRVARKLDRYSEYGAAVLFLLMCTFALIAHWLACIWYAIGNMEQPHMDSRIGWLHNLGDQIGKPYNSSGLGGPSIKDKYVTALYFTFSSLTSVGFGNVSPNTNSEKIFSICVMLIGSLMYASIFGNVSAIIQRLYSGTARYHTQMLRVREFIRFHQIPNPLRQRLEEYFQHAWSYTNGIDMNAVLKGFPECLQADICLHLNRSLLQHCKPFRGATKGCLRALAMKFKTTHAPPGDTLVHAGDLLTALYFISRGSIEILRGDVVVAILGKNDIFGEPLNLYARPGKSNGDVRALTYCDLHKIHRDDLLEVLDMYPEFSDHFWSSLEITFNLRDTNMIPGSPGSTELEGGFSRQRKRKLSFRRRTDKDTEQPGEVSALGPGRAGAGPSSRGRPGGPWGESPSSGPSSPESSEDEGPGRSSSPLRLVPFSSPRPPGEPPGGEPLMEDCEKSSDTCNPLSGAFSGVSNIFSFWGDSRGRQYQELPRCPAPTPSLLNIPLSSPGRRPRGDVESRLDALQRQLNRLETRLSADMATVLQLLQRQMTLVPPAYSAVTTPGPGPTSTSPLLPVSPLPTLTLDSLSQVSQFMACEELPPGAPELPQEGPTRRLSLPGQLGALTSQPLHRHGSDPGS
The experiment in a line: hERG binding assay ([35S]MK-499 displacement). The following applies: [35S]MK-499, HEK-293 hERG membranes. The text has this: All four compounds were also counter-screened for human ether-a-go-go-related gene (hERG) activity against the radio-ligand MK-0499. Blockade of hERG K^+ channels is widely regarded as the predominant cause of drug-induced QT prolongation. (Aronov, A J Med Chem. 2006 Nov. 16; 49(23):6917-21).
MK-499, a potent hERG blocker, was used in a ligand binding assay to evaluate the binding of test compounds to hERG potassium channels as previously described (Wang, J et al. Am J Physiol Heart Circ Physiol, 2003, 284: H256-H267).^2 Test compounds were incubated with 0.05 nM of radiolabeled MK-499 ([35S]MK-499; specific Activity=1,279,010 μCi/μmol) in an assay buffer solution (70 mM NaCl, 60 mM KCl, 10 mM HEPES/NaOH (pH 7.4), 2 mM MgCl2, 1 mM CaCl2) also containing membranes isolated from HEK-293 cells stably expressing hERG channels in 96 well polypropylene deep-well assay plates at room temperature (25° C.) for >90 min. Assay plates were rinsed three time with buffer (130 mM NaCl, 10 mM HEPES/NaOH (pH 7.4), 2 mM MgCl2, 1 mM CaCl2) and the solution transferred to a Packard FilterMate Universal Harvester apparatus and filtered using PerkinElmer UniFilter-96 GF/C 96-well white microplates pre-soaked with 0.3% BSA (10 mL/L of 30% BSA). Plates were dried overnight at 37° C., or for 2 hrs at 56° C. The bottom of the plates were sealed and 0.025 mL of Microscint 0 was added to each well. The plates were top sealed and counted for 2 min/well in a Packard TopCount Scintillation counter. Test compounds were evaluated in a five point titration format using half-log steps from 0.3 μM to 30 μM. […] Less than 5% of the added radioactivity was retained on the filters. Assays were performed in triplicate.
In general terms: The hERG channel carries a current that helps repolarise heart muscle cells.

The next series concerns CWR22rv-1 cells. The experiment in a line: CWR22rv-1 prostate cancer cell death (propidium iodide, FACS). It is filed as cell-based, human. The procedure:
CWR22Rv1 cells (ATCC, Manassas, Va.) were seeded in 6 well tissue culture plate at density of 300,000 cells/well and maintained in RPMI 1640 (Mediatech, Herndon, Va.) containing 10% fetal bovine serum, 2.5 mM L-glutamine, and penicillin-streptomycin (100 IU/ml and 100 μg/ml, respectively) at 37° C. with 5% CO2. Cells were then switched to serum free RPMI media overnight prior to drug treatment. Compounds were dissolved in 100% dimethylsulfoxide (DMSO) and diluted to the desired concentrations in serum free RPMI. Cells were treated with indicated drug concentrations (in triplicate per treatment point) for 24, 48, 72 hour. After treatment, cells were harvested by trypsinization and fixed in 70% ethanol. The fixed cells were then stained with propidium iodide (50 μg/ml) after treatment with RNase (5 μg/ml). The stained cells were analyzed for DNA content using FACSsort (Becton Dickinson). Cell cycle fractions were quantified with Cell Quest (Becton Dickinson) or ModFit LT (Verity Software House).

T1 sequence (Q15858 whole entry): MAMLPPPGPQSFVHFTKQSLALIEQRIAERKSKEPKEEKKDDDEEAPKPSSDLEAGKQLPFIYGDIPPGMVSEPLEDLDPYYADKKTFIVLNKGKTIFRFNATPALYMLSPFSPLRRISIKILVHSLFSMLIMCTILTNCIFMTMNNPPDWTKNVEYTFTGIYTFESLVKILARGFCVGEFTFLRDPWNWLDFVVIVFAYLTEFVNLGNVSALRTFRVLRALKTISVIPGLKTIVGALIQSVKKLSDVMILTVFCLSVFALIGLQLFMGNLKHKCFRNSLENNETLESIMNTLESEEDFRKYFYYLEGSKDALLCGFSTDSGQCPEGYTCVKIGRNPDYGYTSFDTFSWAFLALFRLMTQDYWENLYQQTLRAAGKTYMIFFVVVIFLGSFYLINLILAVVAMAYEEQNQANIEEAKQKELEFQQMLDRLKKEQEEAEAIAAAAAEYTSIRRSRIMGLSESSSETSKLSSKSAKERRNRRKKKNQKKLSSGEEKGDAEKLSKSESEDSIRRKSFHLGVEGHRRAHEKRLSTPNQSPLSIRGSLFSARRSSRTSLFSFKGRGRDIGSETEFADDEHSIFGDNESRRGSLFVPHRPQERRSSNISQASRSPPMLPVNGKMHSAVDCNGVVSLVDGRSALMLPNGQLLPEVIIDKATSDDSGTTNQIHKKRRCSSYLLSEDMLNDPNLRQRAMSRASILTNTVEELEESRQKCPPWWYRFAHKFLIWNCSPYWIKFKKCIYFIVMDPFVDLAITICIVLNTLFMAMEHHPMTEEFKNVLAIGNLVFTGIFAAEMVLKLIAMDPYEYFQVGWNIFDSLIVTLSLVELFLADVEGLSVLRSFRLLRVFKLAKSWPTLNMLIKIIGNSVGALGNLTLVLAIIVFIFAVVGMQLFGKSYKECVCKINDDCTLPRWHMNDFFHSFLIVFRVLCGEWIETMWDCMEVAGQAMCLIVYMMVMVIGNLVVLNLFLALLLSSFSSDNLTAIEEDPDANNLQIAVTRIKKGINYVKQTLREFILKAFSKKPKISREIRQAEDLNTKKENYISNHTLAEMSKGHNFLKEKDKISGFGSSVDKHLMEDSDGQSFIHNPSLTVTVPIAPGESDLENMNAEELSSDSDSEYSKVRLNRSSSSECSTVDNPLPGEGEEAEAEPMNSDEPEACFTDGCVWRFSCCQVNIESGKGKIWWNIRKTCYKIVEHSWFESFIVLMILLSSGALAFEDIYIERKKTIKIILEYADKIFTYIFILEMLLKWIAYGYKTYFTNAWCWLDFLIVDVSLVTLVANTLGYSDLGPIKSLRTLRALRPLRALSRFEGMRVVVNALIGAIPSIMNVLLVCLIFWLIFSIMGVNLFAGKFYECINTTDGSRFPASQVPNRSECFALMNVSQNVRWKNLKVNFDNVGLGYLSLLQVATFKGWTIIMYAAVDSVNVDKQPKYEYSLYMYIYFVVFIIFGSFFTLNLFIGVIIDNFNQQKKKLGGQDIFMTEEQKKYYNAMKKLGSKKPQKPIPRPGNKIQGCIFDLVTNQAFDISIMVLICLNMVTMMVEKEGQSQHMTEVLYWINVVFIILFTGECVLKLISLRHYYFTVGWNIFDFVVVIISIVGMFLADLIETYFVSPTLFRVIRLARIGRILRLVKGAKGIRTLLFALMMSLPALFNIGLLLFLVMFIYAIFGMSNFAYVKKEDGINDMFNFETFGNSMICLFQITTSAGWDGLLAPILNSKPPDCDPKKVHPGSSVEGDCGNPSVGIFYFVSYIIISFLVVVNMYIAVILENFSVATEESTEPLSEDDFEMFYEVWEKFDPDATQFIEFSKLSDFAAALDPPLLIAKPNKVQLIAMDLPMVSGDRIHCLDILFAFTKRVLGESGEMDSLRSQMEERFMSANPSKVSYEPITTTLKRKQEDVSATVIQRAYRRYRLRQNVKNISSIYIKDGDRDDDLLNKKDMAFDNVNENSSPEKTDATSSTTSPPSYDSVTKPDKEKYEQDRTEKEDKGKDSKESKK

As to `CCCCCCCC(O)(C(N)=O)c1cccc(Cl)c1` (racemic) [(±)-1, 2-(3-chloro-phenyl)-2-hydroxy-nonanoic acid amide], in series [1], the “decrease in tumor volume” value was determined as 62%. Moreover, in series [2], the “acute rotorod toxicity observations” value is given as “No deaths, spasms, respiratory disease was reported”. Moreover, the IC50 (as a rule, the concentration at which inhibition is half-maximal) at hNav1.7 worked out at 1810 nM. In addition, the “% inhibition for hERG assay, 0.3 μM” value on hERG potassium channels (0.3 μM) was determined as 15%. Besides, the “% inhibition for hERG assay, 1 μM” value at hERG potassium channels (1 μM) turned out to be 17%. Further, the “% inhibition for hERG assay, 3 μM” value on hERG potassium channels (3 μM) was 15%. For the same molecule, the “% inhibition for hERG assay, 10 μM” value at hERG potassium channels (10 μM) was determined as 51%. Also, the “% inhibition for hERG assay, 30 μM” value at hERG potassium channels (30 μM) is 78%. Besides, the “cell death of CWR22rv-1 cells” value with CWR22rv-1 cells (25 μM, after 24 h) was “marginal effects”; in the series with CWR22rv-1 cells (after 72 h), 25%.
